target: T1, Recombinant human JARID1B/KDM5B (Homo sapiens, UniProt Q9UGL1); test: LANCE Ultra TR-FRET JARID1B (KDM5B) demethylase inhibition assay; assay type: biochemical; settings: 0.1 uM of test-compounds, FLAG-JARID1B, 500 nM biotinylated H3K4me3 peptide substrate, 30 min at room temperature
T1 construct: purchased Active Motif 31432; host or cells: Sf9 insect cells
Outline: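 FLAG-tagged JARID1B from Sf9 cells, pre-incubated 5 min with 0.1 uM compound (1% DMSO), then 500 nM biotinylated H3K4me3 peptide, 500 uM 2-OG, 25 uM Fe(II), 2 mM ascorbate in pH 7.5 Hepes buffer. After 30 min at room temperature, H3K4me2/1 product detected by TR-FRET (665/590 nm ratio).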

T1 sequence (Q9UGL1 whole entry): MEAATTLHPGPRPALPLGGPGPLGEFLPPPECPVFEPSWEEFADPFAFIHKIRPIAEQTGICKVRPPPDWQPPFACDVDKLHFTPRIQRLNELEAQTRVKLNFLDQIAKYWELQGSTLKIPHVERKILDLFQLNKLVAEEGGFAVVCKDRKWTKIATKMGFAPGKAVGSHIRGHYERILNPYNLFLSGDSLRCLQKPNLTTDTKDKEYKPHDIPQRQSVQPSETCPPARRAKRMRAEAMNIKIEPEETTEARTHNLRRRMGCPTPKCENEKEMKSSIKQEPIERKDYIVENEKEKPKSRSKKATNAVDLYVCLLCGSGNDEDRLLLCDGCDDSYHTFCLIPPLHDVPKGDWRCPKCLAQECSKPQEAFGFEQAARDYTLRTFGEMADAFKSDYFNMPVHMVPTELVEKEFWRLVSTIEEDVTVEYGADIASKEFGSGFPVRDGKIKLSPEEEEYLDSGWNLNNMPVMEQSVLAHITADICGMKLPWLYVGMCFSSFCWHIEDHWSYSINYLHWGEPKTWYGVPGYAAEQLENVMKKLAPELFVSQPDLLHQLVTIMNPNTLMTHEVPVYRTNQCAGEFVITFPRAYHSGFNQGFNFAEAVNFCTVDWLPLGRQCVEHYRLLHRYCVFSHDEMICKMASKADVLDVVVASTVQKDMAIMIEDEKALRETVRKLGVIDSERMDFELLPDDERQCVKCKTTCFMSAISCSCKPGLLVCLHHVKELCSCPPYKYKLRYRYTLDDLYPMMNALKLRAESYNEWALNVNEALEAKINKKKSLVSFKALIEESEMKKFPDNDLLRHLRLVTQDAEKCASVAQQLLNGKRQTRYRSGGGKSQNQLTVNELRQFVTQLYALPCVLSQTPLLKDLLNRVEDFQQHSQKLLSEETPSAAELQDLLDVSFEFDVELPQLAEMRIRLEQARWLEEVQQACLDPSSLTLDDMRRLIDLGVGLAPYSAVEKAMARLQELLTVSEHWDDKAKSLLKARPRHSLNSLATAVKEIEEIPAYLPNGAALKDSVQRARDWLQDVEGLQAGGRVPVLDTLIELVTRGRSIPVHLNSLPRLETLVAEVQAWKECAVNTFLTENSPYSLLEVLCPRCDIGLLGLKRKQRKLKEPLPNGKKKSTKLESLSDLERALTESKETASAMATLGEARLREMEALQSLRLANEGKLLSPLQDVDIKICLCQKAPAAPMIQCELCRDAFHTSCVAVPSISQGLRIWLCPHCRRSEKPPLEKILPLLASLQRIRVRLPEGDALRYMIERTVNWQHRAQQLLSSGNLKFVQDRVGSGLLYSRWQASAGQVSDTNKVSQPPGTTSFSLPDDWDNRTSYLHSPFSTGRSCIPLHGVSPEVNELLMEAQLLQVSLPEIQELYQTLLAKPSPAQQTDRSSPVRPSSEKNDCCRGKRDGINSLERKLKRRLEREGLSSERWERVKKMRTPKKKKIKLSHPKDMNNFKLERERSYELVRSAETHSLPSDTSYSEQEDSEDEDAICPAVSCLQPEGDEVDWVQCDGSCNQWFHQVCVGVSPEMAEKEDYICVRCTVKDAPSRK

Row | SMILES | inhibition at 0.1 µM
1 | O=c1[nH]c(COc2ccc(Cl)c(Cl)c2)nc2c(-c3csc(NCCO)n3)nccc12 [Compound 136, 2-((3,4-dichlorophenoxy)methyl)-8-(2-((2-hydroxyethyl)amino)thiazol-4-yl)pyrido[3,4-d]pyrimidin-4(3H)-one] | ≥ 50%
2 | Nc1ncc(-c2nccc3c(=O)[nH]c(COc4ccc(Cc5ccccc5)cc4)nc23)s1 [Compound 68, 8-(2-aminothiazol-5-yl)-2-((4-benzylphenoxy)methyl) pyrido[3,4-d]pyrimidin-4(3H)-one] | < 20%
3 | O=c1[nH]c(COc2ccc(F)c(Cl)c2)nc2c(-c3csc(NCC4CCN(Cc5ccccc5)CC4)n3)nccc12 [Compound 96, 8-(2-(((1-benzylpiperidin-4-yl)methyl)amino)thiazol-4-yl)-2-((3-chloro-4-fluorophenoxy)methyl) pyrido[3,4-d]pyrimidin-4(3H)-one] | < 20%
4 | O=c1[nH]c(COc2cc(F)cc(F)c2)nc2c(-c3csc(NCCO)n3)nccc12 [Compound 129, 2-((3,5-difluorophenoxy)methyl)-8-(2-((2-hydroxyethyl)amino)thiazol-4-yl)pyrido[3,4-d]pyrimidin-4(3H)-one] | < 20%
5 | CCC[C@H](CO)Nc1nc(-c2nccc3c(=O)[nH]c(COc4ccc(F)c(Cl)c4)nc23)cs1 [Compound 121, (R)-2-((3-chloro-4-fluorophenoxy)methyl)-8-(2-((1-hydroxypentan-2-yl)amino)thiazol-4-yl)pyrido[3,4-d]pyrimidin-4(3H)-one] | 20 to 50%
6 | CC(CNc1nc(-c2nccc3c(=O)[nH]c(COc4ccc(F)c(Cl)c4)nc23)cs1)Oc1ccccc1 (centres unmarked) [Compound 123, 2-((3-chloro-4-fluorophenoxy)methyl)-8-(2-((2-phenoxypropyl)amino)thiazol-4-yl)pyrido[3,4-d]pyrimidin-4(3H)-one] | < 20%
7 | O=c1[nH]c(CCc2ccccc2)nc2c(-c3csc(NCCO)n3)nccc12 [Compound 161, 8-(2-((2-hydroxyethyl)amino)thiazol-4-yl)-2-phenethylpyrido[3,4-d]pyrimidin-4(3H)-one] | 20 to 50%
8 | O=c1[nH]cnc2c(-c3cnn(CCO)c3)nccc12 [Compound 63, 8-(1-(2-hydroxyethyl)-1H-pyrazol-4-yl)pyrido[3,4-d]pyrimidin-4(3H)-one] | 20 to 50%
9 | CC(C)N(CCCCCNc1nc(-c2nccc3c(=O)[nH]c(COc4ccc(F)c(Cl)c4)nc23)cs1)C(C)C [Compound 120, 2-((3-chloro-4-fluorophenoxy)methyl)-8-(2-((5-(diisopropylamino)pentyl)amino)thiazol-4-yl)pyrido[3,4-d]pyrimidin-4(3H)-one] | 20 to 50%
10 | Nc1nn(-c2nccc3c(=O)[nH]cnc23)cc1-c1cccc(OCc2ccccc2)c1 [Compound 31, 8-(3-amino-4-(3-(benzyloxy)phenyl)-1H-pyrazol-1-yl)pyrido[3,4-d]pyrimidin-4(3H)-one] | ≥ 50%
11 | CN1CCC(Nc2nc(-c3nccc4c(=O)[nH]c(COc5cc(F)cc(F)c5)nc34)cs2)CC1 [Compound 131, 2-((3,5-difluorophenoxy)methyl)-8-(2-((1-methylpiperidin-4-yl)amino)thiazol-4-yl)pyrido[3,4-d]pyrimidin-4(3H)-one] | ≥ 50%
